Measurements: PubChem BioAssay (NCI)
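At the GI50, growth is halved. TGI is the concentration that stops growth completely.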

How the values were obtained:
Test in all cases: DTP human tumour cell line panel, 384-well format
UO-31 renal = test system: UO-31 renal
IGROV1 ovarian = test system: IGROV1 ovarian
DU-145 prostate = test system: DU-145 prostate
OVCAR-3 ovarian = test system: OVCAR-3 ovarian
SK-MEL-2 melanoma = test system: SK-MEL-2 melanoma
SF-268 CNS = test system: SF-268 CNS
MALME-3M melanoma = test system: MALME-3M melanoma
OVCAR-5 ovarian = test system: OVCAR-5 ovarian
786-0 renal = test system: 786-0 renal
A549 NSCLC = test system: A549 NSCLC
HCT-15 colon = test system: HCT-15 colon
NCI-H522 lung = test system: NCI-H522 lung
HT29 colon = test system: HT29 colon
SNB-19 CNS = test system: SNB-19 CNS
SR leukemia = test system: SR leukemia
UACC-62 melanoma = test system: UACC-62 melanoma
OVCAR-8 ovarian = test system: OVCAR-8 ovarian
SF-539 CNS = test system: SF-539 CNS
COLO 205 colon = test system: COLO 205 colon
NCI-H460 NSCLC = test system: NCI-H460 NSCLC
TK-10 renal = test system: TK-10 renal
RPMI-8226 leukemia = test system: RPMI-8226 leukemia
M14 melanoma = test system: M14 melanoma
KM12 colon = test system: KM12 colon
MOLT-4 leukemia = test system: MOLT-4 leukemia
HL-60(TB) leukemia = test system: HL-60(TB) leukemia
MCF7 breast = test system: MCF7 breast
UACC-257 melanoma = test system: UACC-257 melanoma
A498 renal = test system: A498 renal
K-562 leukemia = test system: K-562 leukemia
SW-620 colon = test system: SW-620 colon
NCI/ADR-RES ovarian = test system: NCI/ADR-RES ovarian
MDA-MB-231 breast = test system: MDA-MB-231 breast
CAKI-1 renal = test system: CAKI-1 renal
HOP-92 NSCLC = test system: HOP-92 NSCLC
OVCAR-4 ovarian = test system: OVCAR-4 ovarian
CCRF-CEM leukemia = test system: CCRF-CEM leukemia
HCC-2998 colon = test system: HCC-2998 colon
NCI-H322M lung = test system: NCI-H322M lung
SK-MEL-28 melanoma = test system: SK-MEL-28 melanoma
HCT-116 colon = test system: HCT-116 colon
SK-MEL-5 melanoma = test system: SK-MEL-5 melanoma
ACHN renal = test system: ACHN renal
SK-OV-3 ovarian = test system: SK-OV-3 ovarian
MDA-MB-435 melanoma = test system: MDA-MB-435 melanoma
NCI-H23 lung = test system: NCI-H23 lung
U251 glioblastoma = test system: U251 glioblastoma
NCI-H226 lung = test system: NCI-H226 lung
SF-295 CNS = test system: SF-295 CNS
PC-3 prostate = test system: PC-3 prostate
LOX IMVI melanoma = test system: LOX IMVI melanoma
T-47D breast = test system: T-47D breast
BT-549 breast = test system: BT-549 breast
MDA-MB-468 breast = test system: MDA-MB-468 breast
RXF 393 renal = test system: RXF 393 renal
HOP-62 NSCLC = test system: HOP-62 NSCLC
SN12C renal = test system: SN12C renal

COc1ccc(-c2c(-c3ccc(C#N)c(F)c3)nc(N3CCC(N)CC3)n(C)c2=O)cc1F
GI50 (UO-31 renal): 13.3 µM | TGI (UO-31 renal): 26.1 µM | GI50 (IGROV1 ovarian): 13.9 µM | TGI (IGROV1 ovarian): 26.9 µM | GI50 (DU-145 prostate): 15.1 µM | TGI (DU-145 prostate): 28.9 µM | GI50 (OVCAR-3 ovarian): 13.2 µM | TGI (OVCAR-3 ovarian): 26 µM | GI50 (SK-MEL-2 melanoma): 5.12 µM | TGI (SK-MEL-2 melanoma): 17.8 µM | GI50 (SF-268 CNS): 14.1 µM | TGI (SF-268 CNS): 27.1 µM | GI50 (MALME-3M melanoma): 2.46 µM | TGI (MALME-3M melanoma): 6.58 µM | GI50 (OVCAR-5 ovarian): 14.7 µM | TGI (OVCAR-5 ovarian): 28.2 µM | GI50 ([…]-0 renal): 10.6 µM | TGI (786-0 renal): 22.5 µM | GI50 (A549 NSCLC): 16.7 µM | TGI (A549 NSCLC): 30.5 µM | GI50 (HCT-15 colon): 15.7 µM | TGI (HCT-15 colon): 29.3 µM | GI50 (NCI-H522 lung): 11.7 µM | TGI (NCI-H522 lung): 24 µM | GI50 (HT29 colon): 9.51 µM | TGI (HT29 colon): 21.6 µM | GI50 (SNB-19 CNS): 18 µM | TGI (SNB-19 CNS): 32.1 µM | GI50 (SR leukemia): 1.69 µM | TGI (SR leukemia): 3.06 µM | GI50 (UACC-62 melanoma): 2.18 µM | TGI (UACC-62 melanoma): 5.43 µM | GI50 (OVCAR-8 ovarian): 14.5 µM | TGI (OVCAR-8 ovarian): 27.6 µM | GI50 (SF-539 CNS): 13.8 µM | TGI (SF-539 CNS): 26.8 µM | GI50 (COLO 205 colon): 12 µM | TGI (COLO 205 colon): 24.3 µM | GI50 (NCI-H460 NSCLC): 3.41 µM | TGI (NCI-H460 NSCLC): 10.9 µM | GI50 (TK-10 renal): 14.3 µM | TGI (TK-10 renal): 27.5 µM | GI50 (RPMI-8226 leukemia): 7.53 µM | TGI (RPMI-8226 leukemia): 19.6 µM | GI50 (M14 melanoma): 4.89 µM | TGI (M14 melanoma): 16.6 µM | GI50 (KM12 colon): 13.1 µM | TGI (KM12 colon): 25.9 µM | GI50 (MOLT-4 leukemia): 1.78 µM | TGI (MOLT-4 leukemia): 3.17 µM | GI50 (HL-60(TB) leukemia): 3.89 µM | TGI (HL-60(TB) leukemia): 15.1 µM | GI50 (MCF7 breast): 3.06 µM | TGI (MCF7 breast): 9 µM | GI50 (UACC-257 melanoma): 1.71 µM | TGI (UACC-257 melanoma): 3.16 µM | GI50 (A498 renal): 2.29 µM | TGI (A498 renal): 7.42 µM | GI50 (K-562 leukemia): 11.8 µM | TGI (K-562 leukemia): 24.1 µM | GI50 (SW-620 colon): 15.3 µM | TGI (SW-620 colon): 28.7 µM | GI50 (NCI/ADR-RES ovarian): 16.5 µM | TGI (NCI/ADR-RES ovarian): 30.3 µM | GI50 (MDA-MB-231 breast): 13.2 µM | TGI (MDA-MB-231 breast): 25.9 µM | GI50 (CAKI-1 renal): 8.69 µM | TGI (CAKI-1 renal): 20.8 µM | GI50 (HOP-92 NSCLC): 6.55 µM | TGI (HOP-92 NSCLC): 19.1 µM | GI50 (OVCAR-4 ovarian): 14.3 µM | TGI (OVCAR-4 ovarian): 27.6 µM | GI50 (CCRF-CEM leukemia): 13 µM | TGI (CCRF-CEM leukemia): 25.8 µM | GI50 (HCC-2998 colon): 11 µM | TGI (HCC-2998 colon): 23 µM | GI50 (NCI-H322M lung): 14.3 µM | TGI (NCI-H322M lung): 28.3 µM | GI50 (SK-MEL-28 melanoma): 10.7 µM | TGI (SK-MEL-28 melanoma): 22.6 µM | GI50 (HCT-116 colon): 6.86 µM | TGI (HCT-116 colon): 19.8 µM | GI50 (SK-MEL-5 melanoma): 14.4 µM | TGI (SK-MEL-5 melanoma): 27.5 µM | GI50 (ACHN renal): 12.4 µM | TGI (ACHN renal): 24.9 µM | GI50 (SK-OV-3 ovarian): 12 µM | TGI (SK-OV-3 ovarian): 24.4 µM | GI50 (MDA-MB-435 melanoma): 13.5 µM | TGI (MDA-MB-435 melanoma): 26.4 µM | GI50 (NCI-H23 lung): 11.2 µM | TGI (NCI-H23 lung): 28.6 µM | GI50 (U251 glioblastoma): 12.2 µM | TGI (U251 glioblastoma): 24.7 µM | GI50 (NCI-H226 lung): 1.75 µM | TGI (NCI-H226 lung): 3.27 µM | GI50 (SF-295 CNS): 16.8 µM | TGI (SF-295 CNS): 30.4 µM | GI50 (PC-3 prostate): 13.8 µM | TGI (PC-3 prostate): 26.8 µM | GI50 (LOX IMVI melanoma): 19.2 µM | TGI (LOX IMVI melanoma): 33.3 µM | GI50 (T-47D breast): 10.4 µM | TGI (T-47D breast): 22.1 µM | GI50 (BT-549 breast): 11.6 µM | TGI (BT-549 breast): 23.9 µM | GI50 (MDA-MB-468 breast): 9.92 µM | TGI (MDA-MB-468 breast): 21.5 µM | GI50 (RXF 393 renal): 2.69 µM | TGI (RXF 393 renal): 9.41 µM | GI50 (HOP-62 NSCLC): 15.3 µM | TGI (HOP-62 NSCLC): 28.7 µM | GI50 (SN12C renal): 12.9 µM | TGI (SN12C renal): 25.6 µM
